# Measurements from ChEMBL document CHEMBL1795249, “Triazole-linked reduced amide isosteres: an approach for the fragment-based drug discovery of anti-Alzheimer's BACE1 inhibitors” (Bioorg Med Chem Lett, 2011).
# Target: Beta-secretase 1 (Homo sapiens, UniProt P56817)
# Assay: Inhibition of BACE1 by cell-free FRET assay
# Sequence of Beta-secretase 1 (P56817 whole entry): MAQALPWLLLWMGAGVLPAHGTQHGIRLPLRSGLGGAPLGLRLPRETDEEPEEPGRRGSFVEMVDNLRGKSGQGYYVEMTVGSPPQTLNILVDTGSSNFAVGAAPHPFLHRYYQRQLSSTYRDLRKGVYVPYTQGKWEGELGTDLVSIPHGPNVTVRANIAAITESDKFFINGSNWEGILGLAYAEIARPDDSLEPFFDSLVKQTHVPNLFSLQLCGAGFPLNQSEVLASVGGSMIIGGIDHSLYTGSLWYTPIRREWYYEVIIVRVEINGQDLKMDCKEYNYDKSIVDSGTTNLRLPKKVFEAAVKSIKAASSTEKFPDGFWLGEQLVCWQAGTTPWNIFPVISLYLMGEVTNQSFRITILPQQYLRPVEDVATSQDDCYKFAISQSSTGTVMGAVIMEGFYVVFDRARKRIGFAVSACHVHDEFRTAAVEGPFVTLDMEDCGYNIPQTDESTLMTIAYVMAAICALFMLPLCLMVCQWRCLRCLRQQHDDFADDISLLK
row,IC50,Compound
1,7000 nM,COc1cccc(CNC[C@H](Cc2ccccc2)n2cc(-c3cc(C(=O)N[C@H](C)c4ccccc4)cc(N(C)S(C)(=O)=O)c3)nn2)c1
2,2000 nM,C[C@@H](NC(=O)c1cc(-c2cn([C@H](CNCc3cccc(Br)c3)Cc3ccccc3)nn2)cc(N(C)S(C)(=O)=O)c1)c1ccccc1
3,3400 nM,C#Cc1cccc(NC2CC(O)C(Nc3cccc(-c4cn([C@H](CNCc5cccc(Br)c5)Cc5ccccc5)nn4)c3)CC2O)c1 (mixture of isomers)
4,2400 nM,C#Cc1cccc(NC2CC(Nc3cccc(-c4cn([C@H](CNCc5cccc(Br)c5)Cc5ccccc5)nn4)c3)C(O)CC2O)c1 (mixture of isomers)
